This test has as its target T1, PSMA (Homo sapiens, UniProt Q04609).
T1 construct: LNCaP whole cells were prepared in suspension; host or cells: LNCaP human prostate carcinoma cells
Briefly: Whole-cell competitive binding assay in PSMA[+] LNCaP cells vs [177Lu]Lu-PSMA-617. As for the experimental part:
LNCaP whole cells were prepared in suspension (7.50 × 10^5 cells/mL) in binding media (DMEM + 0.2% BSA + 25 mM HEPES). […] Samples were incubated at room temperature for 60 min, centrifuged, and the supernatant was removed. Cell pellets were washed twice with ice-cold PBS and subsequently counted using an automated gamma counter. […] IC50 values were determined by nonlinear regression in GraphPad Prism, with all experiments performed in triplicate.

The term IC50 denotes the concentration needed to halve the response being measured.

T1 sequence (Q04609 whole entry): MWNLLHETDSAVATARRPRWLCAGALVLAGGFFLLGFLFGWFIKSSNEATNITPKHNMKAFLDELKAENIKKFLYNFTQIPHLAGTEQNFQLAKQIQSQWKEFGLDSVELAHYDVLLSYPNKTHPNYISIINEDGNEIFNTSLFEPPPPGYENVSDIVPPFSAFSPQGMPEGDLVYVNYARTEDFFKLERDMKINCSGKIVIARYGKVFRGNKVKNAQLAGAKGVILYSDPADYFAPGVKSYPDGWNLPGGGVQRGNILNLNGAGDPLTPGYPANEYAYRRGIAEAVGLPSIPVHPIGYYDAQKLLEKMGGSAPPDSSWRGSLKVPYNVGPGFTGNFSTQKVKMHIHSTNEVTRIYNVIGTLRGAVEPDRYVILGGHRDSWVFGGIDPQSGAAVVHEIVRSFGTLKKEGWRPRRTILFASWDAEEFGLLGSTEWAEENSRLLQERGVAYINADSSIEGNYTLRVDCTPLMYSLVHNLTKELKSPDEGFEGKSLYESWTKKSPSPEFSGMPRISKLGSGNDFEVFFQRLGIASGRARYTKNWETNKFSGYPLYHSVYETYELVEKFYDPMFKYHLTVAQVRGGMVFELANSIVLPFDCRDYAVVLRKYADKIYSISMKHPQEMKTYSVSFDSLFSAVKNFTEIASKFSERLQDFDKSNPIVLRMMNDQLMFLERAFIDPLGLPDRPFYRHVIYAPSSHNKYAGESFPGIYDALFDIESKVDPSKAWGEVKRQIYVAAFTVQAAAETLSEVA

`O=C(O)CC[C@H](NC(=O)N[C@@H](CCCCNC(=O)[C@H](Cc1ccc2ccccc2c1)NC(=O)[C@H]1CC[C@H](CNC(=O)CN2CCN(CC(=O)O)CCN(CC(=O)O)CCN(CC(=O)O)CC2)CC1)C(=O)O)C(=O)O` [PSMA-617] yielded a half-maximal inhibitory concentration (IC50) of 2.7 ± 0.1 nM.
